Assays:
[1] = method code SF-AS, from Kishida, K.; Otori, T. (1980). A quantitative study on the relationship between transcorneal permeability of drugs and their hydrophobicity. Jpn J Ophthalmol, 24(3)251-259.; conditions: pH 7.4
[2] = method code SF, from DOI: 10.1023/a:1016286026462, PMID: 8570535
[3] = method code SF-AS, from DOI: 10.1248/bpb1978.4.759, PMID: 7320829
[4] = method code SF-HPLC, from DOI: 10.1016/0378-5173(88)90064-6; conditions: pH 7.4
[5] = not given; remark: listed apart in the source
[6] = not given; remark: listed apart in the source
[7] = not given; remark: listed apart in the source
[8] = method code SF-HPLC, from Peips, M.; Sikk, P.; Aaviksaar, A. (1986). Hydrophobic interaction in the active sites of serine proteases from thermoactinomycetes. Org. React., 23(3)261-271.; conditions: pH 2.2
[9] = method code SF-AS, from DOI: 10.1584/jpestics.8.69
[10] = not given; remark: listed apart in the source
[11] = method code …, from Wiggins, H.; Karcher, A.; Michael Wilson, J.; Robb, I. (2008). Determining Octanol/Water Partitioning Coefficients for Industrial Surfactants. Proc. 15th Annual International Petroleum & Biofuels …
[12] = not given; remark: listed apart in the source
[13] = method code SF-AS, from PMID: 7149911; conditions: pH 8.9
[14] = method code SF-AS, from DOI: 10.1016/0041-008x(67)90079-8
[15] = method code SF-AS, from DOI: 10.1016/0304-4165(87)90236-4, PMID: 2889474

## CCOc1ccc(N)cc1
[1]
  logD: 1.24

## COc1cc(C(C)(C)C)c(O)c(C(C)(C)C)c1
[2]
  logP: 4.64

## C=CCOc1ccccc1OCC(CNC(C)C)OC(=O)C1CC1 (stereo unspecified)
other
  logP: 3.01

## O=C1NC(=O)C(c2ccccc2)(c2ccccc2)N1S(=O)(=O)c1ccccc1
[3]; pH 7.0
  logD: 1.93

## CCN(CC)C(=O)COC(=O)C(C)c1ccc2cc(C(C)=O)ccc2c1 (stereo unspecified)
[4]
  logD: 3.32

## c1ccc2c(c1)cnc1ccccc12
[5]
  logP: 3.3

## Brc1cc2c(cc1Br)Oc1cc(Br)c(Br)cc1O2
[6]
  logP: 6.5

## Cc1ccccc1OCC(O)CNCCOc1ccc(C(N)=O)cc1 (stereo unspecified)
[7]
  logP: 2.19

## CCCCC(NC(C)=O)C(=O)O (stereo unspecified)
[8]
  logD: 0.33

## Clc1cc2oc3c(Cl)cc(Cl)c(Cl)c3c2c(Cl)c1Cl
[6]
  logP: 6.82

## COc1ccc(CCN(C)CCCC2(c3ccc(OC)c(OC)c3)S(=O)(=O)CCCS2(=O)=O)cc1OC
[7]
  logP: 2.6

## Cc1ccc(C=C2C(=O)[C@]3(C)CCC2C3(C)C)cc1
[2]
  logP: 5.13

## Brc1cc2oc3c(Br)c(Br)c(Br)cc3c2cc1Br
[6]
  logP: 7.04

## CC(C)c1ccc(C(=O)CC(=O)c2ccccc2)cc1
[2]
  logP: 6.51

## Cc1ccccc1N1C(=O)c2cc(S(N)(=O)=O)c(Cl)cc2NC1C (stereo unspecified)
[7]
  logP: 1.8

## COc1ccc(C(C)c2ccc(OC)cc2)cc1
[9]
  logP: 4.52

## Clc1cc2oc3cc(Cl)c(Cl)cc3c2cc1Cl
[6]
  logP: 5.83

## O=C(CCO[N+](=O)[O-])Oc1ccccc1C(=O)O
[10]
  logP: 1.6

## c1cnc2c(c1)cc1ccc3cccc4ccc2c1c34
[5]
  logP: 5.35

## c1ccc2c(c1)Cc1cccnc1-2
[5]
  logP: 2.78

## CCCCCCCCOCCOCCOCCOCCOCCO
[11]
  logP: 2.43

## CCCCCCCCOC(=O)c1ccc(N(C)C)cc1
[2]
  logP: 5.75

## CC(C)NCC(O)c1ccc(NS(C)(=O)=O)cc1 (stereo unspecified)
[7]
  logP: 0.53

## C=CCOc1ccccc1OCC(CNC(C)C)OC(C)=O (stereo unspecified)
other
  logP: 3.82

## COC(=O)[C@H](C)NC(C)=O
[8]
  logD: -0.57

## Cn1c(=O)nc(-c2ccccc2)c2cc(C(F)(F)F)ccc21
[12]
  logP: 2.69

## CN(N=O)C(=O)Oc1cccc2ccccc12
[13]
  logD: 2.85

## COc1ccc(C(C[N+](=O)[O-])c2ccc(OC)cc2)cc1
[9]
  logP: 3.57

## c1ccc2c(c1)ccc1nc3ccc4ccccc4c3cc12
[5]
  logP: 5.31

## O=C(CCCCO[N+](=O)[O-])Oc1ccccc1C(=O)O
[10]
  logP: 2.21

## CC(=O)c1ccc(N)cc1
[1]
  logD: 0.83

## CCCCOC(=O)c1ccccc1C(=O)OCCCC
[2]
  logP: 4.39

## CCCCCCCCCCCCCCOCCOCCOCCOCCOCCOCCOCCOCCO
[11]
  logP: 5.65

## Nc1ccc(Cc2ccc(N)cc2)cc1
[1]
  logD: 1.62

## Clc1cccnc1Cl
[14]
  logP: 2.11

## Cn1c(=O)nc(-c2ccccc2)c2cc(Cl)ccc21
[12]
  logP: 2.38

## CCC1(c2ccccc2)C(=O)NC(=O)N1S(=O)(=O)c1ccccc1 (stereo unspecified)
[3]
  logP: 2.44

## C=CCOc1ccccc1OCC(CNC(C)C)OC(=O)c1ccc([N+](=O)[O-])cc1 (stereo unspecified)
other
  logP: 5.22

## c1ccc2c(c1)ccc1nc3c(ccc4ccccc43)cc12
[5]
  logP: 5.38

## CCCCCCOCCOCCOCCOCCOCCO
[11]
  logP: 1.24

## CCCCCCCCOCCOCCOCCO
[11]
  logP: 2.84

## C[C@@H]1C[C@H]2OC(=O)[C@@H](C)[C@H]2[C@H](O)[C@]2(C)C(=O)C=C[C@@H]12
[15]
  logP: 0.53

## COC(=O)[C@H](CC(C)C)NC(C)=O
[8]
  logD: 0.84

## Clc1cc(Cl)nc(Cl)c1
[14]
  logP: 2.68

## C=C1C(=O)O[C@@H]2C[C@@H](C)[C@@H]3C=CC(=O)[C@@]3(C)[C@@H](OC(=O)CCCC(=O)O[C@H]3[C@@H]4C(=C)C(=O)O[C@@H]4C[C@@H](C)[C@@H]4C=CC(=O)[C@]43C)[C@H]12
[15]
  logP: 1.37

## COc1ccc(OC)c(N)c1
[1]
  logD: 1.2

## Cn1c(=O)nc(-c2ccccc2)c2cc(F)ccc21
[12]
  logP: 1.87

## C=CCOc1ccccc1OCC(CNC(C)C)OC(=O)CCC (stereo unspecified)
other
  logP: 3.95

## CC(C)(CO[N+](=O)[O-])C(=O)Oc1ccccc1C(=O)O
[10]
  logP: 2.32

## Brc1cc2oc3cc(Br)c(Br)cc3c2cc1Br
[6]
  logP: 5.98

## CCN(CC)C(=O)COC(=O)c1ccccc1O
[4]
  logD: 1.99

## ClC(Cl)(Cl)C(c1ccccc1)c1ccccc1
[9]
  logP: 4.87

## CC(C)(CCC(CO[N+](=O)[O-])O[N+](=O)[O-])C(=O)Oc1ccccc1C(=O)O (stereo unspecified)
[10]
  logP: 3.33

## CCc1ccc(N)cc1
[1]
  logD: 1.96

## Brc1cc2oc3ccc(Br)c(Br)c3c2cc1Br
[6]
  logP: 6.2

## Cn1c(=O)nc(-c2ccccc2)c2cc(S(C)(=O)=O)ccc21
[12]
  logP: 0.59

## COC(=O)[C@H](Cc1ccc(O)cc1)NC(C)=O
[8]
  logD: 0.33

## Brc1cc2oc3cc(Br)c(Br)c(Br)c3c2cc1Br
[6]
  logP: 7.2

## CC(=O)c1ccc2cc(C(C)C(=O)OCC(=O)N(C)CC(N)=O)ccc2c1 (stereo unspecified)
[4]
  logD: 1.37

## COc1ccc(C(c2ccc(OC)cc2)C(C)[N+](=O)[O-])cc1 (stereo unspecified)
[9]
  logP: 3.87

## CCC(=O)C(CC(C)N(C)C)(c1ccccc1)c1ccccc1 (stereo unspecified)
[7]
  logP: 3.93

## CCCCCCC(NC(C)=O)C(=O)OC (stereo unspecified)
[8]
  logD: 1.7

## Clc1cccc(Cl)n1
[14]
  logP: 2.15

## O=C(CCCC(CO[N+](=O)[O-])O[N+](=O)[O-])Oc1ccccc1C(=O)O (stereo unspecified)
[10]
  logP: 2.62

## C=CCOc1ccccc1OCC(CNC(C)C)OC(=O)C(C)C (stereo unspecified)
other
  logP: 3.77

## COc1ccc2c(c1)c(-c1ccccc1)nc(=O)n2C
[12]
  logP: 1.91

## Clc1cncc(Cl)c1
[14]
  logP: 2.56

## Clc1ccc(Cl)c(Cl)n1
[14]
  logP: 2.77

## CC1(C)NC(=O)NC1=O
[3]
  logP: -0.48

## CN(N=O)C(=O)Nc1ccc(F)cc1
[13]
  logD: 1.88

## c1ccc2nc3ccc4ccccc4c3cc2c1
[5]
  logP: 4.27

## O=C1NC(=O)C(c2ccccc2)(c2ccc(O)cc2)N1 (stereo unspecified)
[3]
  logP: 1.72

## CN(C)C(=O)COC(=O)c1ccccc1O
[4]
  logD: 1.21

## CCN(CC)CCNC(=O)c1ccc(NS(C)(=O)=O)cc1
[7]
  logP: 1.36

## Nc1ccc(CO)cc1
[1]
  logD: -0.22

## COc1ccc(C(=O)c2ccccc2)c(O)c1
[2]
  logP: 3.82

## Nc1ccc(CCO)cc1
[1]
  logD: 0.1

## CC(=O)c1ccc2cc(C(C)C(=O)OCC(=O)N(CCO)CCO)ccc2c1 (stereo unspecified)
[4]
  logD: 1.7

## Cc1ccccc1S(=O)(=O)N1C(=O)NC(=O)C1(c1ccccc1)c1ccccc1
[3]
  logP: 4

## CCN(N=O)C(=O)Nc1ccccc1
[13]
  logD: 2.25

## CN(N=O)C(=O)N(C)c1ccccc1
[13]
  logD: 1.58

## O=C(CCCCCCO[N+](=O)[O-])Oc1ccccc1C(=O)O
[10]
  logP: 3.22

## CCC(NC(C)=O)C(=O)OC (stereo unspecified)
[8]
  logD: -0.17

## CCC(C(c1ccc(OC)cc1)c1ccc(OC)cc1)[N+](=O)[O-] (stereo unspecified)
[9]
  logP: 4.45

## Cn1c(=O)nc(-c2ccccc2)c2ccc(Cl)cc21
[12]
  logP: 2.36

## CCCCCCCCCCCCOCCOCCOCCOCCOCCOCCOCCO
[11]
  logP: 4.59

## C=CCOc1ccccc1OCC(CNC(C)C)OC(=O)CC (stereo unspecified)
other
  logP: 3.76

## CC(C)N(N=O)C(=O)Nc1ccccc1
[13]
  logD: 2.5

## COc1ccc(C(c2ccc(OC)cc2)C(F)(F)F)cc1
[9]
  logP: 4.76

## Clc1cnc(Cl)c(Cl)c1
[14]
  logP: 3.11

## O=C1NC(=O)C(c2ccccc2)(c2ccccc2)N1S(=O)(=O)c1ccc(Cl)cc1
[3]
  logP: 3.48

## O=C(CCCCC(CO[N+](=O)[O-])O[N+](=O)[O-])Oc1ccccc1C(=O)O (stereo unspecified)
[10]
  logP: 2.97

## CCCCCCCCCCOCCOCCOCCOCCOCCOCCOCCOCCO
[11]
  logP: 3.09

## C=CCOc1ccccc1OCC(CNC(C)C)OC(=O)C(C)(C)C (stereo unspecified)
other
  logP: 3.54

## CN(N=O)C(=O)Nc1ccccc1
[13]
  logD: 1.72

## CC(=O)c1ccc2cc(C(C)C(=O)OCC(N)=O)ccc2c1 (stereo unspecified)
[4]
  logD: 2.06

Source: the SangsterLogP compilation
